Laboratory results taken from patent publication US7858790B2, “Modulators of muscarinic receptors” (Vertex Pharmaceuticals Incorporated, priority 2006, dated 2010).

Columns and labels:
M4 muscarinic receptor = target: T1, M4 muscarinic receptor (Homo sapiens, UniProt P08173); experiment: Functional mobilization of intracellular calcium (FLIPR) in CHO cells expressing M4 muscarinic receptor; assay type: cell-based; conditions: for M4 Activity: CHO cells expressing M4, calcium mobilization; for Emax: CHO, 100% efficacy is the maximum response obtained with the Carbachol control
T1 construct: expressed in transfected cells; host or cells: CHO (M4-CHO recombinant cell line)
T1 sequence (P08173 1-479): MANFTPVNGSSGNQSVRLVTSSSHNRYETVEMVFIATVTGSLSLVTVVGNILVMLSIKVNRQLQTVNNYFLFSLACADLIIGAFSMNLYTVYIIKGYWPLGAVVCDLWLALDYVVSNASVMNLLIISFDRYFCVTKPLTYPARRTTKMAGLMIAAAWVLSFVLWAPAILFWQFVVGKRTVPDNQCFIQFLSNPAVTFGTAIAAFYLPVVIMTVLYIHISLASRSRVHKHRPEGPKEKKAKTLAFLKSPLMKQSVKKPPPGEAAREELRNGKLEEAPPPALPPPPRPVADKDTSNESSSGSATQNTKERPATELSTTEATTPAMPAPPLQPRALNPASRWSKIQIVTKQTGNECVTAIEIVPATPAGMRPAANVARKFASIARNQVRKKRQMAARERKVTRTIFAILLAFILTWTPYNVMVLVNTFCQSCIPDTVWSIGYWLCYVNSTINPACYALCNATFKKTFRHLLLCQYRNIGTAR
Description: (§1) VI. Assays for Detecting and Measuring Inhibition Properties of Compounds Functional Mobilization of Intracellular Calcium to Determine Muscarinic Receptor Activity:
(§2) CHO cells expressing muscarinic receptors (M1 to M5) are grown as monolayers in tissue culture flasks at 37° C. in a humidified atmosphere containing 5% CO2 and passaged every 3-5 days. The growth media is Dulbecco's modified eagles medium (DMEM, Gibco Cat# 12430-054), containing 25 mM Hepes and supplemented with Fetal Bovine Serum (Hyclone, cat# SH30071.03), 0.1 mM of MEM non-essential amino acids (GIBCO, Cat# 11140-050), 1 mM MEM Sodium Pyruvate (GIBCO Cat# 11360-070) and 100 units/ml of Penicillin G and 100 μg/ml of Streptomycin (GIBCO Cat# 15140-122). The recombinant muscarinic receptor cell lines are grown under antibiotic pressure with media containing 25 μg/ml zeocin and 500 μg/ml G418 (M1-CHO), 4 μg/ml puromycin, 50 μg/ml zeocin and 2.5 μg/ml blasticidin (M2 and M4-CHO) or 50 μg/ml zeocin and 4 μg/ml puromycin (M3 and M5-CHO).
(§3) Cells are harvested at 80-90% confluence using Versene (GIBCO Cat# 15040-066), collected by centrifugation and seeded 18-24 hours prior to running the calcium assay at a density of 5,000-10,000 cells/well in […], clear-bottomed 384-well plates (BD Biocoat, poly-D-lysine, Cat#356663). The day of the experiment, the cells are washed with a plate washer (Bioteck Instruments, ELX 405) using bath buffer (140-mM NaCl, 4.5-mM KCl, 2-mM CaCl2, 1-mM MgCl2, 10-mM Hepes-Na, 10-mM Glucose, pH 7.4, with NaOH) containing 1 mM Probenecid. Next, the calcium dye Fluo-3 (25 μl/well of Fluo-3 μM at 4 μM, Molecular Probes F-1241, in Bath 1 buffer containing 1 mM Probenecid) is added to the 25 μl of Bath 1 remaining in each well after the plate wash and the dye is loaded at 37° C. in the tissue culture incubator for 60-90 min. The fluorescent dye is removed using the plate washer with Bath 1 containing 1 mM Probenecid, leaving 25 μl/well of this solution after the wash. Alternatively, cells can be loaded with the calcium indicator from Molecular Devices (Calcium 3 Assay Reagents, Cat # R7181) adding 5 μl of a 5× solution dye in Bath 1 containing 1 mM Probenecid (10 ml per dye flask cat# R7182 to generate a solution 20×) to 20 μl of the same buffer. After loading for 60 min, the experiment can be run without having to remove the dye.
(§4) Compounds are prepared at a 2× fold concentration in a 96-well plate (round bottom, Costar Corning cat# 3656), by reconstituting the pre-spotted compounds in bath 1 containing 1 mM probenecid. The final concentration DMSO is 0.5%, and the amount of DMSO is normalized across the assay plate. To determine an agonist action of the compounds on muscarinic receptors, the reconstituted compounds are added (25 μl compound/well) to the cell assay plate (containing 25 μl/well) using the multi-channel robotic system of the FLIPR 3 Instrument (Molecular Devices, Sunnyvale, Calif.). To determine a functional inhibitory-action of the compounds on muscarinic receptors, the reconstituted compounds are added (25 μl compound/well) to the assay plate and pre-incubated for 15 min prior to adding 25 μl of Carbachol at 3× the EC80 for each muscarinic subtype. Alternatively, the compounds can be co-applied simultaneously with the agonist. In both assay modes, the fluorescence is recorded for 60 sec (excitation wavelength is […] and emission wavelength 540 nm) using the FLIPR 3 instrument.
(§5) The potency, efficacy and selectivity of the muscarinic compounds were evaluated by screening the compound activity across the whole family (M1 to M5 cells). Compounds were also screened for activity on other proteins such as other GPCRs and ion channels to determine selectivity on M4 receptors.
(§6) Examples of activities and efficacies of the muscarinic compounds of formulae (I, Ia, and Ib) on modulating M1 and M4 receptors are shown below in Table 8. […]

M1 muscarinic receptor = target: T2, M1 muscarinic receptor (Homo sapiens, UniProt P11229); experiment: Functional mobilization of intracellular calcium (FLIPR) in CHO cells expressing M1 muscarinic receptor; assay type: cell-based; conditions: for M1 Activity: CHO cells expressing M1, calcium mobilization; for Emax: CHO, 100% efficacy is the maximum response obtained with the Carbachol control
T2 construct: expressed in transfected cells; host or cells: CHO (M1-CHO recombinant cell line)
T2 sequence (P11229 1-460): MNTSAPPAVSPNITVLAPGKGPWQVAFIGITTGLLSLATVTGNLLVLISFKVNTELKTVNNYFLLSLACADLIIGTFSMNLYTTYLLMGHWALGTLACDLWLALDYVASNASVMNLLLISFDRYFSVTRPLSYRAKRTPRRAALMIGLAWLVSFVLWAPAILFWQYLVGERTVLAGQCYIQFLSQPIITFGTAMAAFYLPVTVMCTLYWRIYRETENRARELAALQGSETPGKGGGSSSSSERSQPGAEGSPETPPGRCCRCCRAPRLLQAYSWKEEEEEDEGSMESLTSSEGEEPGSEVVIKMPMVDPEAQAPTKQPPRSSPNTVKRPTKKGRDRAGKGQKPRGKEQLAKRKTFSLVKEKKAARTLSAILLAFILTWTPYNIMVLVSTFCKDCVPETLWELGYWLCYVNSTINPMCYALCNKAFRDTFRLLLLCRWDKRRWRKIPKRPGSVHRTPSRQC
Description: as §1, §2, §3, §4, §5, §6

SMILES	M4 Activity (M4 muscarinic receptor)	Emax (M4 muscarinic receptor)	M1 Activity (M1 muscarinic receptor)	Emax (M1 muscarinic receptor)
CCOC(=O)N1C2CCC1CC(N1CCC3(CC=C(C(=O)N4CCCC4)c4ccccc43)CC1)C2 (stereo not shown) [compound 5]	+++ (activity was measured to be less than 2.0 μM)	25 to 100%	+++ (activity was measured to be less than 2.0 μM)	25 to 100%
CCOC(=O)N1CCC(N2CCC3(CC=C(C(=O)N(C)C)c4ccccc43)CC2)CC1 [compound 4, ethyl 4-(4-(dimethylcarbamoyl)-2H-spiro[naphthalene-1,4′-piperidine]-1′-yl)piperidine-1-carboxylate]	+++ (activity was measured to be less than 2.0 μM)	25 to 100%	+++ (activity was measured to be less than 2.0 μM)	25 to 100%
CCOC(=O)N1CCC(N2CCC3(CC=C(C#N)c4ccccc43)CC2)CC1 [compound 63]	+++ (activity was measured to be less than 2.0 μM)	25 to 100%	+++ (activity was measured to be less than 2.0 μM)	25 to 100%
O=C(C1=CCC2(CCN(C3C[C@@H]4CC[C@@H]3C4)CC2)c2ccccc21)N1CCCC1 (stereo partly shown) [compound 29]	+ (activity was measured to be greater than 10.0 μM)	< 25%	+ (activity was measured to be greater than 10.0 μM)	< 25%
CN(C)C(=O)C1=CC2(CCN(CC3CC4C=CC3C4)CC2)c2ccccc21 (stereo not shown) [compound 67]	+++ (activity was measured to be less than 2.0 μM)	25 to 100%	+ (activity was measured to be greater than 10.0 μM)	25 to 100%
CC(C)NC(=O)C1=CCC2(CCN(CCC(C)(C)C)CC2)c2ccccc21 [compound 52]	+ (activity was measured to be greater than 10.0 μM)	< 25%	+ (activity was measured to be greater than 10.0 μM)	< 25%
CN(C)C(=O)C1=CC2(CCN(C3C[C@@H]4CC[C@@H]3C4)CC2)c2ccccc21 (stereo partly shown) [compound 64]	+++ (activity was measured to be less than 2.0 μM)	25 to 100%	+ (activity was measured to be greater than 10.0 μM)	< 25%
O=C(O)C1=CC2(CCN(CC3CCCCC3)CC2)c2ccccc21 [compound 54]	+ (activity was measured to be greater than 10.0 μM)	< 25%	+ (activity was measured to be greater than 10.0 μM)	< 25%
CC(C)(C)CCN1CCC2(C=C(C(=O)NC3CCCC3)c3ccccc32)CC1 [compound 77]	+ (activity was measured to be greater than 10.0 μM)	< 25%	+ (activity was measured to be greater than 10.0 μM)	25 to 100%
O=C(NC1CCC1)C1=CC2(CCN(CC3CC4C=CC3C4)CC2)c2ccccc21 (stereo not shown) [compound 47]	+++ (activity was measured to be less than 2.0 μM)	25 to 100%	++ (activity was measured to be from 2.0 μM to 10.0 μM)	25 to 100%
CCC(CC)NC(=O)C1=CC2(CCN(CCCCSC)CC2)c2ccccc21 [compound 55]	+ (activity was measured to be greater than 10.0 μM)	< 25%	+ (activity was measured to be greater than 10.0 μM)	< 25%
CCC(CC)NC(=O)C1=CC2(CCN(CC3CC4C=CC3C4)CC2)c2ccccc21 (stereo not shown) [compound 30]	+++ (activity was measured to be less than 2.0 μM)	25 to 100%	+ (activity was measured to be greater than 10.0 μM)	< 25%
CCC(CC)NC(=O)C1=CC2(CCN(C3CCN(C(=O)N(C)C)CC3)CC2)c2ccccc21 [compound 33]	+ (activity was measured to be greater than 10.0 μM)	< 25%	+ (activity was measured to be greater than 10.0 μM)	< 25%
CC(C)(C)CCN1CCC2(C=C(C(=O)N3CCCCC3)c3ccccc32)CC1 [Compound No. 37]	+++ (activity was measured to be less than 2.0 μM)	25 to 100%	+++ (activity was measured to be less than 2.0 μM)	25 to 100%
O=C(O)C1=CC2(CCN(C3C[C@@H]4CC[C@@H]3C4)CC2)c2ccccc21 (stereo in doubt) [Compound No. 48, 1′-(bicyclo[2.2.1]heptan-2-yl)spiro[indene-1,4′-piperidine]-3-carboxylic acid]	+ (activity was measured to be greater than 10.0 μM)	25 to 100%	+ (activity was measured to be greater than 10.0 μM)	25 to 100%
CNC(=O)C1=CC2(CCN(C3CCCCC3)CC2)c2ccccc21 [compound 58]	+++ (activity was measured to be less than 2.0 μM)	25 to 100%	+ (activity was measured to be greater than 10.0 μM)	25 to 100%
CNC(=O)C1=CC2(CCN(CCC(C)C)CC2)c2ccccc21 [compound 15]	+++ (activity was measured to be less than 2.0 μM)	25 to 100%	+ (activity was measured to be greater than 10.0 μM)	25 to 100%
CCC(CC)NC(=O)C1=CC2(CCN(CCC3CCOCC3)CC2)c2ccccc21 [compound 53]	+++ (activity was measured to be less than 2.0 μM)	25 to 100%	+ (activity was measured to be greater than 10.0 μM)	< 25%
CNC(=O)C1=CC2(CCN(CCC(C)(C)C)CC2)c2ccccc21 [Compound No. 27, 1′-(3,3-dimethylbutyl)-N-methylspiro[indene-1,4′-piperidine]-3-carboxamide]	+++ (activity was measured to be less than 2.0 μM)	25 to 100%	+++ (activity was measured to be less than 2.0 μM)	25 to 100%
